From patent US7781591B2, “Substituted 3-cyanopyridines as protein kinase inhibitors” (Wyeth LLC, priority 2006, dated 2010)

Biological target: T1, human PKCθ full length enzyme (Homo sapiens, UniProt Q04759)
T1 construct: human PKCθ full length enzyme (Panvera Cat# P2996); purchased Panvera P2996
Test: PKCθ IMAP assay (fluorescence polarization)
Type: biochemical
Conditions: not given

T1 sequence (Q04759 whole entry): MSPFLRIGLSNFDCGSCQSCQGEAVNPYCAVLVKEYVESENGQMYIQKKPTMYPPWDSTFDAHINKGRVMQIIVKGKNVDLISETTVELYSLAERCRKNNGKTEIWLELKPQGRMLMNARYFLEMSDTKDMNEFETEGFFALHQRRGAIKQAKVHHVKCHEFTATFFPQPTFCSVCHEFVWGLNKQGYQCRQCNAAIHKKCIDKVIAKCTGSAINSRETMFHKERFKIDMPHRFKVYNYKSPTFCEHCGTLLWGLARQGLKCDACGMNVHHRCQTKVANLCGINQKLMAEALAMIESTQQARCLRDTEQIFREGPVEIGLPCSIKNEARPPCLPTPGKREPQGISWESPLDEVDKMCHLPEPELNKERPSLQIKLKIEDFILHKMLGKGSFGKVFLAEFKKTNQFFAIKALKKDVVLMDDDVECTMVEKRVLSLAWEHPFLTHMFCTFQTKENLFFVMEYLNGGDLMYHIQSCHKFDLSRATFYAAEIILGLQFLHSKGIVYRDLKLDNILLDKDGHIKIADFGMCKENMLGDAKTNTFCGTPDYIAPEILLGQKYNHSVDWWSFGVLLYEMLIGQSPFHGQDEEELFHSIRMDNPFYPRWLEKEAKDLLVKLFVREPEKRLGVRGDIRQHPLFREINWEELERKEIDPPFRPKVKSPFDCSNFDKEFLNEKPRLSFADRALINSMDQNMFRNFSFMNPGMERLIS

With Cc1c(Nc2c(C#N)cncc2-c2cc3cc(CN4CCN(C)CC4)ccc3s2)ccc2[nH]ccc12 [Compound 521, 4-[(4-methyl-1H-indol-5-yl)amino]-5-{5-[(4-methylpiperazin-1-yl)methyl]-1-benzothien-2-yl}nicotinonitrile] the IC50 was 1 nM.

Same assay, conditions: human PKCθ full length enzyme, IMAP; average value; read-out: IC50 PKCθ IMAP

First: COC(=O)Nc1ccc(-c2cncc(C#N)c2Nc2ccc3[nH]ccc3c2C)cc1 [Compound 526, methyl (4-{5-cyano-4-[(4-methyl-1H-indol-5-yl)amino]pyridin-3-yl}phenyl)carbamate]
Second: CC(=O)Nc1ccc(-c2cncc(C#N)c2Nc2ccc3[nH]ccc3c2C)cc1 [Compound 576, N-(4-{5-cyano-4-[(4-methyl-1H-indol-5-yl)amino]pyridin-3-yl}phenyl)acetamide]
The IC50 of the first is 7.3-fold lower: 10 nM for the first, 73 nM for the second. The first is the more potent here.

Going from Cc1c(Nc2c(C#N)cncc2-c2cc3cc(CO)ccc3o2)ccc2[nH]ccc12 [Compound 481, 5-[5-(hydroxymethyl)-1-benzofuran-2-yl]-4-[(4-methyl-1H-indol-5-yl)amino]nicotinonitrile] to Cc1c(Nc2c(C#N)cncc2-c2cc3cc(CN4CCC(N5CCOCC5)CC4)ccc3o2)ccc2[nH]ccc12 [Compound 395, 4-[(4-methyl-1H-indol-5-yl)amino]-5-{5-[(4-morpholin-4-ylpiperidin-1-yl)methyl]-1-benzofuran-2-yl}nicotinonitrile], the IC50 rises from 0.21 nM to 4 nM (19-fold).

Cc1c(Nc2c(C#N)cncc2-c2ccc(OCCNCCO)cc2)ccc2[nH]ccc12 [Compound 414, 5-(4-{2-[(2-hydroxyethyl)amino]ethoxy}phenyl)-4-[(4-methyl-1H-indol-5-yl)amino]nicotinonitrile] and Cc1c(Nc2c(C#N)cncc2-c2ccc(OCCNCc3ccccc3)cc2)ccc2[nH]ccc12 [Compound 419, 5-{4-[2-(benzylamino)ethoxy]phenyl}-4-[(4-methyl-1H-indol-5-yl)amino]nicotinonitrile] are the same in IC50: 4 nM for the first, 4 nM for the second.

CCCCNC(=O)c1ccc(-c2cccc(-c3cncc(C#N)c3Nc3cccc4[nH]ccc34)c2)cc1 [Compound 215, N-butyl-3′-[5-cyano-4-(1H-indol-4-ylamino)pyridin-3-yl]biphenyl-4-carboxamide] and N#Cc1cncc(-c2cccc(-c3ccc(C(=O)NCCO)cc3)c2)c1Nc1cccc2[nH]ccc12 [Compound 216, 3′-[5-cyano-4-(1H-indol-4-ylamino)pyridin-3-yl]-N-(2-hydroxyethyl)biphenyl-4-carboxamide] are within 1.5-fold of each other in IC50: 60 nM for the first, 50 nM for the second.

COc1cc(-c2cncc(C#N)c2Nc2ccc3[nH]ccc3c2C)ccc1OCCN1CCN(C)CC1 [Compound 377, 5-{3-methoxy-4-[2-(4-methylpiperazin-1-yl)ethoxy]phenyl}-4-[(4-methyl-1H-indol-5-yl)amino]nicotinonitrile] and Cc1c(Nc2c(C#N)cncc2-c2ccc(OCCN3CCN(C)CC3)cc2)ccc2[nH]ccc12 [Compound 350, 4-[(4-methyl-1H-indol-5-yl)amino]-5-{4-[2-(4-methylpiperazin-1-yl)ethoxy]phenyl}nicotinonitrile] are within 1.5-fold of each other in IC50: 10 nM for the first, 8 nM for the second.

Going from N#Cc1cncc(-c2cc3cc(CNC4CC4)ccc3s2)c1Nc1cccc2[nH]ccc12 [Compound 278, 5-{5-[(cyclopropylamino)methyl]-1-benzothien-2-yl}-4-(1H-indol-4-ylamino)nicotinonitrile] to N#Cc1cncc(-c2cc3cc(CN4CCOCC4)ccc3s2)c1Nc1cccc2[nH]ccc12 [Compound 281, 4-(1H-indol-4-ylamino)-5-[5-(morpholin-4-ylmethyl)-1-benzothien-2-yl]nicotinonitrile], the IC50 rises from 2 nM to 10 nM (5-fold).

First: Cc1c(Nc2c(C#N)cncc2-c2ccc(OCCN3CCN(c4ccccn4)CC3)cc2)ccc2[nH]ccc12 [Compound 430, 4-[(4-methyl-1H-indol-5-yl)amino]-5-{4-[2-(4-pyridin-2-ylpiperazin-1-yl)ethoxy]phenyl}nicotinonitrile]
Second: Cc1c(Nc2c(C#N)cncc2-c2ccc(OCCN3CCN(C)CC3)cc2)cc(Cl)c2[nH]ccc12 [Compound 535, 4-[(7-chloro-4-methyl-1H-indol-5-yl)amino]-5-{4-[2-(4-methylpiperazin-1-yl)ethoxy]phenyl}nicotinonitrile]
The IC50 of the first is 2.2-fold lower: 17 nM for the first, 38 nM for the second.

Going from COc1cc(Br)c(-c2cncc(C#N)c2Nc2ccc3[nH]ccc3c2C)cc1OC [Compound 247, 5-(2-bromo-4,5-dimethoxyphenyl)-4-[(4-methyl-1H-indol-5-yl)amino]nicotinonitrile] to Cc1c(Nc2c(C#N)cncc2-c2ccc(Br)cc2F)ccc2[nH]ccc12 [Compound 381, 5-(4-bromo-2-fluorophenyl)-4-[(4-methyl-1H-indol-5-yl)amino]nicotinonitrile], the IC50 falls from 100 nM to 20 nM (5-fold). The second is the more potent here.

Compared with Cc1c(Nc2c(C#N)cncc2-c2cc3cc(CN4CCNCC4)ccc3o2)cc(Cl)c2[nH]ccc12 [Compound 547, 4-[(7-chloro-4-methyl-1H-indol-5-yl)amino]-5-[5-(piperazin-1-ylmethyl)-1-benzofuran-2-yl]nicotinonitrile], Cc1c(Nc2c(C#N)cncc2-c2cc3cc(CN4CCN(C(=O)OC(C)(C)C)CC4)ccc3o2)cc(Cl)c2[nH]ccc12 [Compound 548, tert-butyl 4-[(2-{4-[(7-chloro-4-methyl-1H-indol-5-yl)amino]-5-cyanopyridin-3-yl}-1-benzofuran-5-yl)methyl]piperazine-1-carboxylate] is 100-fold higher in IC50: 4 nM for the first, 406 nM for the second. The first is the more potent here.

First: CN(C)S(=O)(=O)c1cccc(-c2cncc(C#N)c2Nc2cccc3[nH]ccc23)c1 [Compound 313, 3-[5-cyano-4-(1H-indol-4-ylamino)pyridin-3-yl]-N,N-dimethylbenzenesulfonamide]
Second: CN(C)S(=O)(=O)c1ccc(-c2cncc(C#N)c2Nc2cccc3[nH]ccc23)cc1 [Compound 326, 4-[5-cyano-4-(1H-indol-4-ylamino)pyridin-3-yl]-N,N-dimethylbenzenesulfonamide]
The IC50 of the first is 9.5-fold lower: 20 nM for the first, 190 nM for the second.

Cc1c(Nc2c(C#N)cncc2-c2ccc(CN3CCN(C)CC3)cc2F)ccc2[nH]ccc12 [Compound 459, 5-{2-fluoro-4-[(4-methylpiperazin-1-yl)methyl]phenyl}-4-[(4-methyl-1H-indol-5-yl)amino]nicotinonitrile] and Cc1c(Nc2c(C#N)cncc2-c2ccc(CN3CCN(C)CC3)s2)ccc2[nH]ccc12 [Compound 464, 4-[(4-methyl-1H-indol-5-yl)amino]-5-{5-[(4-methylpiperazin-1-yl)methyl]-2-thienyl}nicotinonitrile] are the same in IC50: 6 nM for the first, 6 nM for the second.

Compared with COc1ccc(-c2cncc(C#N)c2Nc2cccc3[nH]ccc23)cc1OCCN1CCC(O)CC1 [Compound 302, 5-{3-[2-(4-hydroxypiperidin-1-yl)ethoxy]-4-methoxyphenyl}-4-(1H-indol-4-ylamino)nicotinonitrile], COc1ccc(-c2cncc(C#N)c2Nc2cccc3[nH]ccc23)cc1OCCNCCc1cccnc1 [Compound 354, 4-(1H-indol-4-ylamino)-5-(4-methoxy-3-{2-[(2-pyridin-3-ylethyl)amino]ethoxy}phenyl)nicotinonitrile] is 7.5-fold lower in IC50: 30 nM for the first, 4 nM for the second. The second is the more potent here.

Compared with COc1ccc(-c2cncc(C#N)c2Nc2ccc3[nH]ccc3c2)cc1OCCNCc1ccccn1 [Compound 241, 4-(1H-indol-5-ylamino)-5-(4-methoxy-3-{2-[(pyridin-2-ylmethyl)amino]ethoxy}phenyl)nicotinonitrile], COc1ccc(-c2cncc(C#N)c2Nc2ccc3[nH]ccc3c2)cc1-c1cccc(Cl)c1 [Compound 191, 5-(3′-chloro-6-methoxybiphenyl-3-yl)-4-(1H-indol-5-ylamino)nicotinonitrile] is 4-fold higher in IC50: 80 nM for the first, 320 nM for the second. The first is the more potent here.

First: Cc1c(Nc2c(C#N)cncc2-c2ccc3c(c2)sc2ccccc23)ccc2[nH]ccc12 [Compound 593, 5-(dibenzo[b,d]thiophen-3-yl)-4-(4-methyl-1H-indol-5-ylamino)nicotinonitrile]
Second: Cc1c(Nc2c(C#N)cncc2-c2ccc3sccc3c2)ccc2[nH]ccc12 [Compound 594, 5-(benzo[b]thiophen-5-yl)-4-(4-methyl-1H-indol-5-ylamino)nicotinonitrile]
The IC50 of the first is 3.2-fold higher: 120 nM for the first, 38 nM for the second.

Going from Cc1c(Nc2c(C#N)cncc2-c2ccc(OCCCl)cc2)cc(Cl)c2[nH]ccc12 [Compound 533, 5-[4-(2-chloroethoxy)phenyl]-4-[(7-chloro-4-methyl-1H-indol-5-yl)amino]nicotinonitrile] to COc1ccc(-c2cncc(C#N)c2Nc2c(C)ccc3[nH]ccc23)cc1OC [Compound 336, 5-(3,4-dimethoxyphenyl)-4-[(5-methyl-1H-indol-4-yl)amino]nicotinonitrile], the IC50 rises from 51 nM to 200 nM (3.9-fold).

First: COc1ccc(-c2cncc(C#N)c2N(C)c2ccc3[nH]ccc3c2)cc1OC [Compound 219, 5-(3,4-dimethoxyphenyl)-4-[1H-indol-5-yl(methyl)amino]nicotinonitrile]
Second: N#Cc1cncc(-c2ccc3c(c2)OCCO3)c1Nc1ccc2[nH]ccc2c1 [Compound 264, 5-(2,3-dihydro-1,4-benzodioxin-6-yl)-4-(1H-indol-5-ylamino)nicotinonitrile]
The IC50 of the first is 4.5-fold higher: 270 nM for the first, 60 nM for the second. The second is the more potent here.

First: N#Cc1cncc(-c2cc3ccccc3s2)c1Nc1cccc2[nH]ccc12 [Compound 322, 5-(1-benzothien-2-yl)-4-(1H-indol-4-ylamino)nicotinonitrile]
Second: N#Cc1cncc(-c2cc3cc(CNCc4ccncc4)ccc3s2)c1Nc1cccc2[nH]ccc12 [Compound 290, 4-(1H-indol-4-ylamino)-5-(5-{[(pyridin-4-ylmethyl)amino]methyl}-1-benzothien-2-yl)nicotinonitrile]
The IC50 of the first is 5-fold higher: 20 nM for the first, 4 nM for the second. The second is the more potent here.

First: CN(C)S(=O)(=O)c1ccccc1-c1cncc(C#N)c1Nc1cccc2[nH]ccc12 [Compound 316, 2-[5-cyano-4-(1H-indol-4-ylamino)pyridin-3-yl]-N,N-dimethylbenzenesulfonamide]
Second: Cc1c(Nc2c(C#N)cncc2-c2cccc(OCCCCN3CCN(C)CC3)c2)ccc2[nH]ccc12 [Compound 502, 4-[(4-methyl-1H-indol-5-yl)amino]-5-{3-[4-(4-methylpiperazin-1-yl)butoxy]phenyl}nicotinonitrile]
The IC50 of the first is 64-fold higher: 1350 nM for the first, 21 nM for the second. The second is the more potent here.

Work on CCC(CC)NC(=O)c1ccc(-c2cccc(-c3cncc(C#N)c3Nc3ccc4[nH]ccc4c3)c2)cc1 [Compound 198, 3′-[5-cyano-4-(1H-indol-5-ylamino)pyridin-3-yl]-N-(1-ethylpropyl)biphenyl-4-carboxamide] yielded an IC50 of 330 nM.
